Reference: ChEMBL document CHEMBL1201862, “PubChem BioAssay data set” (2004)
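Assay format: 96-well plates, 48-hour exposure. GI50 marks 50% less growth.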 The source made the active and inactive calls. Cut-off read from the data, not from the text of the source: active = GI50 up to about 1.1 µM and inactive = higher.

How the values were obtained:
Experiment in all cases: NCI-60 cell line screen, 48 h
[1] = system: A549
[2] = system: NCI/ADR-RES
[3] = system: SF-268
[4] = system: SNB-19
[5] = system: SK-MEL-2
[6] = system: PC-3
[7] = system: OVCAR-5
[8] = system: NCI-H226
[9] = system: HL-60
[10] = system: RXF 393
[11] = system: IGROV-1
[12] = system: MCF7
[13] = system: BT-549
[14] = system: SN12C
[15] = system: HOP-62
[16] = system: UACC-62
[17] = system: MDA-N
[18] = system: SNB-75
[19] = system: KM12
[20] = system: LXFL 529

Compound	GI50 [1]	GI50 [2]	GI50 [3]	GI50 [4]	GI50 [5]	GI50 [6]	GI50 [7]	GI50 [8]	GI50 [9]	GI50 [10]	GI50 [11]	GI50 [12]	GI50 [13]	GI50 [14]	GI50 [15]	GI50 [16]	GI50 [17]	GI50 [18]	GI50 [19]	GI50 [20]
Cc1ccc2c(c1)OC1Nc3ccccc3C1=C2O (configuration not stated)	23.4 µM (inactive)	20.9 µM (inactive)	40 µM (inactive)	31.6 µM (inactive)	16.9 µM (inactive)	16.3 µM (inactive)	32.6 µM (inactive)	20.7 µM (inactive)	16.2 µM (inactive)	20.5 µM (inactive)	29.9 µM (inactive)	17.2 µM (inactive)	19.7 µM (inactive)	27.3 µM (inactive)	27.4 µM (inactive)	15.9 µM (inactive)	24.7 µM (inactive)	23.2 µM (inactive)	26.4 µM (inactive)	–
C=C1CC2CC(O)CC(C1)C2 (configuration not stated)	> 100 µM (inactive)	–	> 100 µM (inactive)	> 100 µM (inactive)	> 100 µM (inactive)	–	> 100 µM (inactive)	> 100 µM (inactive)	–	> 100 µM (inactive)	> 100 µM (inactive)	–	–	> 100 µM (inactive)	> 100 µM (inactive)	> 100 µM (inactive)	–	> 100 µM (inactive)	> 100 µM (inactive)	> 100 µM (inactive)
O=C1c2ccccc2C(=O)N1C(=S)c1ccccc1	> 100 µM (inactive)	> 100 µM (inactive)	> 100 µM (inactive)	> 100 µM (inactive)	> 100 µM (inactive)	> 100 µM (inactive)	> 100 µM (inactive)	> 100 µM (inactive)	> 100 µM (inactive)	> 100 µM (inactive)	> 100 µM (inactive)	> 100 µM (inactive)	> 100 µM (inactive)	> 100 µM (inactive)	> 100 µM (inactive)	> 100 µM (inactive)	> 100 µM (inactive)	> 100 µM (inactive)	> 100 µM (inactive)	–
C=CCN1CCC(c2cc(C(=O)OCC)[nH]c2-c2cc(C)no2)C1=O (configuration not stated)	> 100 µM (inactive)	> 100 µM (inactive)	> 100 µM (inactive)	> 100 µM (inactive)	> 100 µM (inactive)	> 100 µM (inactive)	> 100 µM (inactive)	> 100 µM (inactive)	76.2 µM (inactive)	> 100 µM (inactive)	> 100 µM (inactive)	> 100 µM (inactive)	> 100 µM (inactive)	> 100 µM (inactive)	> 100 µM (inactive)	> 100 µM (inactive)	> 100 µM (inactive)	94.8 µM (inactive)	> 100 µM (inactive)	–
CC(=O)C1C(=O)C(=O)N(c2ccccc2)C1=O (configuration not stated)	> 100 µM (inactive)	> 100 µM (inactive)	> 100 µM (inactive)	> 100 µM (inactive)	> 100 µM (inactive)	> 100 µM (inactive)	> 100 µM (inactive)	> 100 µM (inactive)	> 100 µM (inactive)	> 100 µM (inactive)	> 100 µM (inactive)	> 100 µM (inactive)	> 100 µM (inactive)	> 100 µM (inactive)	> 100 µM (inactive)	> 100 µM (inactive)	> 100 µM (inactive)	> 100 µM (inactive)	> 100 µM (inactive)	–
Cc1c2cc[n+](C)c(C)c2cc2c1[nH]c1ccccc12	1.59 µM (inactive)	71.1 µM (inactive)	0.984 µM (active)	0.8 µM (active)	6.73 µM (inactive)	22.2 µM (inactive)	19.2 µM (inactive)	1.69 µM (inactive)	16.9 µM (inactive)	38.7 µM (inactive)	7.98 µM (inactive)	5.74 µM (inactive)	2.44 µM (inactive)	0.627 µM (active)	3.16 µM (inactive)	11.3 µM (inactive)	27.5 µM (inactive)	1.19 µM (inactive)	2.65 µM (inactive)	–
CCOC(=O)C1=C(C)C2C=C(c3cccs3)CC(c3ccc(Cl)cc3)=C2OC1=O (configuration not stated)	> 100 µM (inactive)	30.5 µM (inactive)	97.1 µM (inactive)	45.2 µM (inactive)	> 100 µM (inactive)	14.1 µM (inactive)	> 100 µM (inactive)	21 µM (inactive)	4.69 µM (inactive)	84.5 µM (inactive)	26.3 µM (inactive)	14.1 µM (inactive)	31.5 µM (inactive)	44.3 µM (inactive)	86.1 µM (inactive)	45.8 µM (inactive)	37.9 µM (inactive)	50.8 µM (inactive)	15.2 µM (inactive)	–
CN1CCCCC1CCN1c2ccccc2Sc2ccc([S+](C)[O-])cc21 (configuration not stated) [MESORIDAZINE]	> 100 µM (inactive)	> 100 µM (inactive)	> 100 µM (inactive)	> 100 µM (inactive)	> 100 µM (inactive)	> 100 µM (inactive)	> 100 µM (inactive)	> 100 µM (inactive)	> 100 µM (inactive)	> 100 µM (inactive)	> 100 µM (inactive)	> 100 µM (inactive)	> 100 µM (inactive)	> 100 µM (inactive)	> 100 µM (inactive)	> 100 µM (inactive)	> 100 µM (inactive)	> 100 µM (inactive)	> 100 µM (inactive)	–
